This passage reports TGI results from PubChem BioAssay (NCI).

Some test systems named below: SNB-19 CNS; IGROV1 ovarian; OVCAR-5 ovarian; DU-145 prostate; OVCAR-8 ovarian; OVCAR-4 ovarian; MCF7 breast; SN12C renal; HS 578T breast; RPMI-8226 leukemia; SK-MEL-5 melanoma; EKVX NSCLC; UO-31 renal; HCT-116 colon; SW-620 colon; NCI-H522 lung; HCC-2998 colon; NCI-H460 lung; T-47D breast; RXF 393 renal.
Test in all cases: DTP human tumour cell line panel, 48 h

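Results reflect a 48-hour exposure of cells in 96-well plates to compound at five concentrations. TGI: concentration producing complete growth inhibition.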

Usually TGI stands for the concentration giving total growth inhibition. A low value points to greater sensitivity of the cells. In the case of `CC(C)OCC(O)COc1ccc2ccc(=O)oc2c1` (stereo not given), the TGI with SNB-19 CNS, in the experiment on IGROV1 ovarian, with OVCAR-5 ovarian, in the experiment with DU-145 prostate, with OVCAR-8 ovarian and with OVCAR-4 ovarian was > 100 µM each time. Besides, the TGI in the experiment with MCF7 breast, with SN12C renal, with HS 578T breast, with RPMI-8226 leukemia, in the experiment on SK-MEL-5 melanoma and in the experiment with EKVX NSCLC was > 100 µM throughout. Moreover, the TGI in the experiment on UO-31 renal, in the experiment on HCT-116 colon, with SW-620 colon, in the experiment on NCI-H522 lung, in the experiment on HCC-2998 colon and in the experiment with NCI-H460 lung was > 100 µM throughout. Further, the TGI with T-47D breast was > 100 µM.

Consider `O=C(c1cccc(OCc2ccccc2)c1OCc1ccccc1)N1CCSC1=S`, for which the TGI with SNB-19 CNS, in the experiment with IGROV1 ovarian, in the experiment with OVCAR-5 ovarian, with DU-145 prostate, in the experiment with OVCAR-8 ovarian and in the experiment with OVCAR-4 ovarian was > 100 µM each time. Further, the TGI with MCF7 breast was > 100 µM; with SN12C renal it was > 100 µM; with HS 578T breast, > 45.8 µM; in the experiment on RPMI-8226 leukemia, 43 µM; in the experiment on SK-MEL-5 melanoma it was 31.7 µM; in the experiment with EKVX NSCLC it was > 100 µM. In addition, the TGI was 97.2 µM with UO-31 renal; > 100 µM in the experiment with HCT-116 colon; > 100 µM in the experiment with SW-620 colon; > 58.1 µM in the experiment on NCI-H522 lung; > 100 µM in the experiment with HCC-2998 colon; > 100 µM in the experiment on NCI-H460 lung. Also, the TGI with T-47D breast is > 100 µM.

As to `CN1C2CCC1C(C(O)c1ccccc1[N+](=O)[O-])C(=O)C2` (stereo not given), the TGI is > 100 µM in the experiment with SNB-19 CNS; > 100 µM in the experiment with IGROV1 ovarian; > 100 µM in the experiment on OVCAR-5 ovarian; 86.8 µM with DU-145 prostate; > 100 µM in the experiment on OVCAR-8 ovarian; > 100 µM in the experiment with OVCAR-4 ovarian. Further, the TGI with MCF7 breast, in the experiment with SN12C renal, with HS 578T breast, in the experiment on RPMI-8226 leukemia, with SK-MEL-5 melanoma and with EKVX NSCLC was > 100 µM in each case. Besides, the TGI in the experiment on UO-31 renal, in the experiment on HCT-116 colon, in the experiment on SW-620 colon, with NCI-H522 lung, in the experiment on HCC-2998 colon and in the experiment with NCI-H460 lung was > 100 µM in each case. The compound also came in with a TGI in the experiment on T-47D breast of 87.7 µM.

With `OCCOCn1cc(Cn2ncc3c(SCc4ccccc4)ncnc32)nn1`, the TGI in the experiment on SNB-19 CNS, with IGROV1 ovarian, with OVCAR-5 ovarian, in the experiment on DU-145 prostate, in the experiment with OVCAR-8 ovarian and in the experiment on OVCAR-4 ovarian was > 100 µM each time. In addition, the TGI with MCF7 breast, in the experiment with SN12C renal, in the experiment with HS 578T breast, in the experiment on SK-MEL-5 melanoma, with EKVX NSCLC and in the experiment with UO-31 renal was > 100 µM in each case. In addition, the TGI in the experiment with HCT-116 colon was > 100 µM; in the experiment on SW-620 colon, > 100 µM; with NCI-H522 lung, 99.2 µM; in the experiment with HCC-2998 colon it was > 100 µM; in the experiment with NCI-H460 lung, > 100 µM; with RXF 393 renal, > 100 µM. Besides, the TGI with T-47D breast was > 100 µM.

In the case of `Nc1ncnc2c1ncn2C1C=CC(CP(=O)(O)O)C1` (stereo not given), the TGI with SNB-19 CNS, in the experiment with IGROV1 ovarian, with OVCAR-5 ovarian, in the experiment with DU-145 prostate, in the experiment with OVCAR-8 ovarian and with OVCAR-4 ovarian was > 100 µM throughout. In addition, the TGI in the experiment on MCF7 breast, in the experiment on SN12C renal, in the experiment with HS 578T breast, in the experiment with RPMI-8226 leukemia, in the experiment with SK-MEL-5 melanoma and in the experiment on EKVX NSCLC was > 100 µM throughout. Further, the TGI in the experiment with UO-31 renal, with HCT-116 colon, in the experiment with SW-620 colon, in the experiment with HCC-2998 colon, with NCI-H460 lung and with RXF 393 renal was > 100 µM each time. Besides, the TGI in the experiment with T-47D breast is > 100 µM.

With `CCCCOC(=O)C1CN2C=CC=NC2=NC1(C(F)(F)F)C(F)(F)F` (stereo not given), the TGI with SNB-19 CNS, in the experiment with IGROV1 ovarian, in the experiment with OVCAR-5 ovarian, with DU-145 prostate, with OVCAR-8 ovarian and with OVCAR-4 ovarian was > 100 µM in each case. Further, the TGI in the experiment on MCF7 breast, in the experiment on SN12C renal, in the experiment with HS 578T breast, in the experiment with RPMI-8226 leukemia, in the experiment with SK-MEL-5 melanoma and in the experiment with EKVX NSCLC was > 100 µM in each case. Besides, the TGI with UO-31 renal, with HCT-116 colon, in the experiment with SW-620 colon, in the experiment with HCC-2998 colon, with NCI-H460 lung and in the experiment with RXF 393 renal was > 100 µM in each case. In addition, the TGI with T-47D breast is > 100 µM.

As for `C=CC1ON(C)CCc2cc(OC)c(OC)cc21` (stereo not given), the TGI with SNB-19 CNS, in the experiment with IGROV1 ovarian, with OVCAR-5 ovarian, with DU-145 prostate, in the experiment on OVCAR-8 ovarian and with MCF7 breast was > 100 µM each time. The TGI in the experiment with SN12C renal, in the experiment with HS 578T breast, in the experiment on RPMI-8226 leukemia, in the experiment on SK-MEL-5 melanoma, with EKVX NSCLC and in the experiment on UO-31 renal was > 100 µM in each case. Further, the TGI in the experiment on HCT-116 colon, in the experiment on SW-620 colon, in the experiment with NCI-H522 lung, in the experiment on HCC-2998 colon, with NCI-H460 lung and with T-47D breast was > 100 µM throughout.

For `CN(CCCNC(=O)c1cn(C)c2c1ccc1cc(Cl)c(Cl)cc12)CCCNC(=O)c1cn(C)c2c1ccc1cc(Cl)c(Cl)cc12`, the TGI was 17.9 µM with SNB-19 CNS; 25.5 µM in the experiment on IGROV1 ovarian; 31.2 µM with OVCAR-5 ovarian; 31.6 µM in the experiment on DU-145 prostate; 31.2 µM in the experiment with OVCAR-8 ovarian; 25.3 µM in the experiment with OVCAR-4 ovarian. The TGI is 19.6 µM with MCF7 breast; 32.3 µM in the experiment on SN12C renal; 27.6 µM with HS 578T breast; 28.7 µM in the experiment on SK-MEL-5 melanoma; 31.5 µM in the experiment on EKVX NSCLC; 39.6 µM with UO-31 renal. For the same compound, the TGI was determined as 31.2 µM with HCT-116 colon; 19.1 µM in the experiment on SW-620 colon; 31.5 µM with NCI-H522 lung; 18.6 µM in the experiment with HCC-2998 colon; 29.8 µM in the experiment on NCI-H460 lung; 16.7 µM in the experiment on RXF 393 renal. In the experiment with T-47D breast, this compound gave a TGI of 36.2 µM.

In the case of `CC1(C)CC[C@]2(C(=O)O)CC[C@]3(C)C(=CC[C@@H]4[C@@]5(C)C[C@H](O)[C@H](O)[C@@](C)(CO)C5=CC[C@]43C)[C@@H]2C1`, the TGI was > 100 µM in the experiment with SNB-19 CNS; > 100 µM with IGROV1 ovarian; > 100 µM with OVCAR-5 ovarian; > 100 µM in the experiment on DU-145 prostate; > 100 µM with OVCAR-8 ovarian; 68.5 µM in the experiment with OVCAR-4 ovarian. Also, the TGI with MCF7 breast, in the experiment with SN12C renal, with HS 578T breast, in the experiment on RPMI-8226 leukemia, in the experiment with SK-MEL-5 melanoma and in the experiment on EKVX NSCLC was > 100 µM in each case. Further, the TGI was > 100 µM in the experiment with UO-31 renal; > 100 µM with HCT-116 colon; > 100 µM with SW-620 colon; > 100 µM in the experiment on NCI-H522 lung; 92.6 µM in the experiment with HCC-2998 colon; 72.2 µM in the experiment with NCI-H460 lung. Moreover, in the experiment on T-47D breast, the TGI was > 100 µM.

For `CCOC(=O)n1[nH]c(=O)n(-c2ccccc2)c1=O`, the TGI in the experiment on SNB-19 CNS, in the experiment on IGROV1 ovarian, with OVCAR-5 ovarian, in the experiment with DU-145 prostate, with OVCAR-8 ovarian and with OVCAR-4 ovarian was > 100 µM each time. The TGI with MCF7 breast, with SN12C renal, in the experiment on HS 578T breast, with RPMI-8226 leukemia, in the experiment with SK-MEL-5 melanoma and in the experiment on EKVX NSCLC was > 100 µM each time. The total growth inhibition concentration (TGI) in the experiment with UO-31 renal, in the experiment on HCT-116 colon, with SW-620 colon, in the experiment on HCC-2998 colon, in the experiment with NCI-H460 lung and in the experiment with RXF 393 renal was > 100 µM in each case. Moreover, the TGI in the experiment on T-47D breast is > 100 µM.

On to `NCC#CCNCCCN1CC1`, for which the TGI with SNB-19 CNS, in the experiment on IGROV1 ovarian, in the experiment with OVCAR-5 ovarian, with DU-145 prostate, in the experiment with OVCAR-8 ovarian and in the experiment on OVCAR-4 ovarian was > 100 µM each time. The TGI with MCF7 breast, with SN12C renal, with HS 578T breast, with RPMI-8226 leukemia, in the experiment with SK-MEL-5 melanoma and in the experiment with EKVX NSCLC was > 100 µM throughout. Also, the TGI in the experiment with HCT-116 colon, in the experiment with SW-620 colon, with NCI-H522 lung, in the experiment with HCC-2998 colon, in the experiment on NCI-H460 lung and in the experiment with T-47D breast was > 100 µM each time.

In the case of `Oc1c2cc(Br)cc1CCc1cc(Br)cc(c1O)CC2`, the TGI in the experiment on SNB-19 CNS was > 100 µM; with IGROV1 ovarian, > 100 µM; with OVCAR-5 ovarian, 65 µM; in the experiment with DU-145 prostate, > 100 µM; with OVCAR-8 ovarian it was > 100 µM; in the experiment on MCF7 breast, 46.2 µM. Besides, the TGI was > 100 µM in the experiment with SN12C renal; 73.4 µM in the experiment with HS 578T breast; > 100 µM with RPMI-8226 leukemia; 33.3 µM in the experiment with SK-MEL-5 melanoma; 66.6 µM in the experiment with UO-31 renal; 30.1 µM in the experiment on HCT-116 colon. Also, the TGI in the experiment with SW-620 colon is 70.5 µM; in the experiment on NCI-H522 lung it was 45.8 µM; in the experiment on HCC-2998 colon, 32.9 µM; in the experiment with NCI-H460 lung it was 39.4 µM; with RXF 393 renal it was 70.4 µM; with T-47D breast, > 100 µM.
